The numbers were not newly measured in patent US4168274A, “Production of a peracid and an oxirane” (priority 1975, dated 1979), which cites them from elsewhere.

The structures appear in SMILES notation.

For the series the following is noted: Table I, carboxylic acids and solvents, symbols .infin., v, s, δ.
`CCCCCC(=O)O` [caproic]: the solubility in water result is given as “δ”.
On to `CCCl` [chloroethane], for which the solubility in water result is given as “δ”.
For `CCCOCCC` [di n-propyl ether], the solubility in water entry is “δ”.
On to `CCOC(=O)CC` [ethyl propionate], for which the solubility in water result was “δ”.
In the case of `CCCCCCC(=O)O` [n.heptoic], the solubility in water entry is listed as “δ”.
`O=[N+]([O-])c1ccccc1` [nitrobenzene]: the solubility in water entry was “δ”.
As for `CC(Cl)CCl` (centres unmarked) [propylene dichloride], the solubility in water entry was “δ”.
As for `ClC(Cl)C(Cl)Cl` [tetrachloroethane], the solubility in water entry is reported as “δ”.
